Patent US20230044943A1, “Pharmaceutical Combinations” (ARRAY BIOPHARMA INC., priority 2016, published 2023)

Assays:
[1] = system: HT-29 BRAF mutant colorectal cancer (CRC) xenograft tumor model; assay: Anti-tumor efficacy in HT-29 colon cancer xenograft model (study TRP-377-HT29-XEF); assay type: in vivo, female nude mice (Mus musculus); settings: HT-29 xenograft, day 43 after 21 days of treatment; LGX818 20 mg/kg po qd, MEK162 3.5 mg/kg po bid, cetuximab 20 mg/kg ip 2qw
Description: (§1) Animals were weight at dosing day(s) and dose was body weight adjusted, dosing volume was 10 mL/kg. Tumor dimensions and body weights were collected at the time of randomization and twice weekly thereafter for the study duration. The following data were provided after each day of data collection: incidence of mortality, individual and group average body weights, and individual and group average tumor volume.
All data were expressed as mean±standard error of the mean (SEM). […] For all statistical evaluations, the level of significance was set at p<0.05. Significance compared to the vehicle control group is reported unless otherwise stated.

[2] = Stability of test compound dosing formulation; assay type: physicochemical
Description: LGX818 was dissolved in 0.5% CMC/0.5% Tween 80.
MEK162 was dissolved in 1% CMC/0.5% Tween 80.

[3] = Tolerability (body weight change, adverse events) in study TRP-377-HT29-XEF; assay type: in vivo; settings: mean ± SEM, day of maximum change in parentheses; HT-29 tumor-bearing nude mice; LGX818 20 mg/kg po qd, MEK162 3.5 mg/kg po bid, cetuximab 20 mg/kg ip 2qw
Description: Animal wellbeing and behavior, including grooming and ambulation were monitored twice daily. General health of mice was monitored and mortality recorded daily. Any moribund animals were sacrificed.
as §1
The % change in body was calculated as (BWcurrent−BWinitial)/(BWinitial)×100. Data is presented as percent body weight change from the day of treatment initiation.

| SMILES | T/C (percent tumor volume change treated over control group) [1] | Stability of dosing formulation ([2]; dissolved in 1% CMC/0.5% Tween 80, room temperature) | % Maximum BW change (day) [3] | Stability of dosing formulation ([2]; dissolved in 0.5% CMC/0.5% Tween 80, room temperature) |
| --- | --- | --- | --- | --- |
| Cn1cnc2c(F)c(Nc3ccc(Br)cc3F)c(C(=O)NOCCO)cc21 [MEK162, 6-(4-bromo-2-fluorophenylamino)-7-fluoro-3-methyl-3H-benzoimidazole-5-carboxylic acid (2-hydroxyethoxy)-amide] | 28% | stable for at least one week | −4.1 ± 1.02 (day 29) % |  |
| COC(=O)N[C@@H](C)CNc1nccc(-c2cn(C(C)C)nc2-c2cc(Cl)cc(NS(C)(=O)=O)c2F)n1 [LGX818, methyl N-[(2S)-1-({4-[3-(5-chloro-2-fluoro-3-methanesulfonamidophenyl)-1-(propan-2-yl)-1H-pyrazol-4-yl]pyrimidin-2-yl}amino)propan-2-yl]carbamate] | 42% |  | −1.6 ± 0.98 (day 29) % | stable for at least one week |
